From US8785457B2 (Cellzome Limited, priority 2009, dated 2014) come the findings set out here.

The target in one assay is T1, mTOR (Homo sapiens, UniProt P42345).
T1 construct: endogenous in cells; host or cells: Jurkat, clone E6-1 (ATCC TIB-152) cell lysate
Kind of assay: mTOR kinobeads assay (competitive binding in Jurkat cell lysate, immunodetection). An outline of the steps: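 IC50 derived from dose-response curves of mTOR captured on immobilized phenylmorpholin-chromen beads, detected by antibody dot blot with infrared fluorescence.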

The subject of assay [1] is S6RP serine-240/244 phosphorylation. Description: In vitro Phospho-S6 cellular assay (pS6RP S240/244) in HEK293T/17 cells. Type of assay: cell-based. Particulars: Homo sapiens, 2 hours, read-out: pS6 IC50. In short, it runs like this: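 Compounds were tested at eight concentrations on adhered HEK293T/17 cells for 2 h at 37 °C (2% FCS, 0.1% DMSO), at 80,000 cells/well for pAkt S473 and 40,000 for pS6RP S240/244. Lysates were captured on phospho-specific antibody MSD plates with Sulfo-Tag detection. Values came from nonlinear variable-slope regression.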

For a further assay, the target named is T2, PI3 Kgamma (PI3 Kg) (Homo sapiens, UniProt P48736).
T2 construct: endogenous in cells; host or cells: cell lysate
T2 sequence (P48736 whole entry): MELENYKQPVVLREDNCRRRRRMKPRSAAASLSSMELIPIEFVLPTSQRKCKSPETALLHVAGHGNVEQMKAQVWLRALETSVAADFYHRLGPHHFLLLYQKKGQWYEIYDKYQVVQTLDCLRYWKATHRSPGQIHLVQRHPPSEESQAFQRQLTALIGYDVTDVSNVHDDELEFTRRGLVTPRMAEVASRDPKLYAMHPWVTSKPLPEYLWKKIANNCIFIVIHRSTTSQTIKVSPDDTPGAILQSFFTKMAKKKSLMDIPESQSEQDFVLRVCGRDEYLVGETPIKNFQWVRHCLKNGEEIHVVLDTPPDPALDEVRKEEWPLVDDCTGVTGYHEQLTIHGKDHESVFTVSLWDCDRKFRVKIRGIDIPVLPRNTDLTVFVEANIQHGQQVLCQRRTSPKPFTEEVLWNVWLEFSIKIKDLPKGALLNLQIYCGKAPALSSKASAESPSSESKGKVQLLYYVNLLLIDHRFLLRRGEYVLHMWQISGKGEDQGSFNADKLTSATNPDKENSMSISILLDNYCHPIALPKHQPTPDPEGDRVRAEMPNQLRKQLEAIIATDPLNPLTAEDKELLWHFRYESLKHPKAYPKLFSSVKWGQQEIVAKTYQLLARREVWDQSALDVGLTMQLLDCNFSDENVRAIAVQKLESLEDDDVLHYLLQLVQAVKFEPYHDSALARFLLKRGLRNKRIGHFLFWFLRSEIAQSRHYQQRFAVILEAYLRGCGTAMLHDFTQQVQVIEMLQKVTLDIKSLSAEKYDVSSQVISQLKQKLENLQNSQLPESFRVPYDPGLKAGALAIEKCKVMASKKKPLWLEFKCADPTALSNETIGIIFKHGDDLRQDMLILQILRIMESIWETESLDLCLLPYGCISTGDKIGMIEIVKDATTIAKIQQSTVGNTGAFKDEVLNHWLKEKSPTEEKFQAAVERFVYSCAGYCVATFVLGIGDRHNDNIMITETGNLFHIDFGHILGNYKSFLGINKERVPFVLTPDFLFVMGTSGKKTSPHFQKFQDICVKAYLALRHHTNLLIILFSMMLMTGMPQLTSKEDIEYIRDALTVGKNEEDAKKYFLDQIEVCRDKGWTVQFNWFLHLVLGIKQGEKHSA
Description: kinobeads assay, PI3Kgamma. The note with it: kinobeads assay, Table 6; read-out: Inhibition values (IC50) PI3Kg. The format is binding. An outline of the steps:
(§1)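 IC50s are fitted to per-kinase dose-response curves. Kinases retained on phenylmorpholin-chromen affinity beads are read by multiplexed immunodetection after elution. Compound, added at a range of concentrations straight into cell lysate, competes for this bead capture.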

In another assay the target is T3, PI3Kalpha (PI3Ka) (Homo sapiens, UniProt P42336).
T3 construct: endogenous in cells; host or cells: cell lysate
T3 sequence (P42336 whole entry): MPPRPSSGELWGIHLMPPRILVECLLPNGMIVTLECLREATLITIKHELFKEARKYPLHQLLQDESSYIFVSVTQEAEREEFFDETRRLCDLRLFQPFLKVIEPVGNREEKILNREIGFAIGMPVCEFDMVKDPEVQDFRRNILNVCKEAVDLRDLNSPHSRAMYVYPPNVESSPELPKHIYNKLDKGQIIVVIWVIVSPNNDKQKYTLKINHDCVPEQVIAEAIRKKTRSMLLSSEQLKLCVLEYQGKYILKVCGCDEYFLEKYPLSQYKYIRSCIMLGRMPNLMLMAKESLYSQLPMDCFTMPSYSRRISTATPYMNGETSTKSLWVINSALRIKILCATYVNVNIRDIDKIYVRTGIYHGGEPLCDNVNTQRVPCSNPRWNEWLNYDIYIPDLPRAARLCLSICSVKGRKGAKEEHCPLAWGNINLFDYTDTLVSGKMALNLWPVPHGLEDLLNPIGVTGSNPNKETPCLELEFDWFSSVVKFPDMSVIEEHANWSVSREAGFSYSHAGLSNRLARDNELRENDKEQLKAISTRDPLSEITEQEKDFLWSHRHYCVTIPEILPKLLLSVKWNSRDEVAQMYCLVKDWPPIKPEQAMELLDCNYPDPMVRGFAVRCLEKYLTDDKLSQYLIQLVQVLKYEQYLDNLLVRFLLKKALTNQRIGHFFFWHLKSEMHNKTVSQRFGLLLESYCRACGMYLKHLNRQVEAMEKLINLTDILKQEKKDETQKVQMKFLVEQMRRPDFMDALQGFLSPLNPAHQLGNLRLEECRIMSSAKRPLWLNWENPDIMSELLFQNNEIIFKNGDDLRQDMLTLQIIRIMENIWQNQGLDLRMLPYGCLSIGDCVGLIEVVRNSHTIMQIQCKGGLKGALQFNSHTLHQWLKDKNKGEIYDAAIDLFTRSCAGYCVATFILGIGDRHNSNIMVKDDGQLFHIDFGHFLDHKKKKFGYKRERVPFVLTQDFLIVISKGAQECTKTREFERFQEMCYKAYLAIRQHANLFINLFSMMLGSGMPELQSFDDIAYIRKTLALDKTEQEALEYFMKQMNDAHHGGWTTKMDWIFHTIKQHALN
T3 sequence (P27986 whole entry partner): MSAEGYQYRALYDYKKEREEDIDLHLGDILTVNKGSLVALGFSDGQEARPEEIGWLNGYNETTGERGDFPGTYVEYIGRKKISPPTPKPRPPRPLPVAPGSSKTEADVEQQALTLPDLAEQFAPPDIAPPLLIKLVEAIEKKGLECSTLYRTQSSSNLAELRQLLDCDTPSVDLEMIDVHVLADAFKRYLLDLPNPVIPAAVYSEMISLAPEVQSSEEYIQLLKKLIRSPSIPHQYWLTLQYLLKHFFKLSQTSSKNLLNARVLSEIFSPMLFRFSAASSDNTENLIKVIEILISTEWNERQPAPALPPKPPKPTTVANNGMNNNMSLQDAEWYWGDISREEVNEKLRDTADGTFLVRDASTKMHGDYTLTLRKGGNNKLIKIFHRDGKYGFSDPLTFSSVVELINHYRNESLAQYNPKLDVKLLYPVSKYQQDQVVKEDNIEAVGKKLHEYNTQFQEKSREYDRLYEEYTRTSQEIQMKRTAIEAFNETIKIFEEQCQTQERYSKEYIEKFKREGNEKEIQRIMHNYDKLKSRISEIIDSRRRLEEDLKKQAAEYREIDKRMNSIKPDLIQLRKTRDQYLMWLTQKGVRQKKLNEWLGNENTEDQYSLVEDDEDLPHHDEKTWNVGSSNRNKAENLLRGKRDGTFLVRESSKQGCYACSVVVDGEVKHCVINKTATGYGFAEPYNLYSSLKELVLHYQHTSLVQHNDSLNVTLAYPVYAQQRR
Description: kinobeads assay, PI3Kalpha. The note with it: kinobeads assay, Table 6; for IC50: read-out: Inhibition values (IC50) PI3Ka. Type of assay: binding. An outline of the steps: as §1

The mark [2] stands for this setting: kinobeads assay, Table 4, read-out: Inhibition values (IC50) mTor.
The mark [3] stands for this setting: kinobeads assay, Table 6, read-out: Inhibition values (IC50) mTOR.

Each structure is given as a SMILES string. Where two headings read alike, the source gives them in different places.

Consider `CCNC(=O)Nc1ccc(-c2nc3c(c(N4CCOC[C@@H]4C)n2)CN(C(=O)c2ccc(F)cc2)C3)cc1` [Example 19, (S)-1-ethyl-3-(4-(6-(4-fluorobenzoyl)-4-(3-methylmorpholino)-6,7-dihydro-5H-pyrrolo[3,4-d]pyrimidin-2-yl)phenyl)urea], for which the IC50 at mTOR (setting [2]) is 100 to 1000 nM; on mTOR (setting [3]) it was 100 to 1000 nM; in assay [1], 135 nM; on PI3 Kgamma (PI3 Kg), above 10000 nM. For the same compound, at PI3Kalpha (PI3Ka), the “Inhibition values (IC50) PI3Ka” value is listed as “D (D >10 μM)”.
As for `CCNC(=O)Nc1ccc(-c2nc3c(c(N4CCOC[C@@H]4C)n2)CN(C(=O)C(C)C)C3)cc1` [Example 21, (S)-1-ethyl-3-(4-(6-isobutyryl-4-(3-methylmorpholino)-6,7-dihydro-5H-pyrrolo[3,4-d]pyrimidin-2-yl)phenyl)urea], the IC50 was below 100 nM on mTOR (setting [2]); below 100 nM at mTOR (setting [3]); 111 nM in assay [1]; above 10000 nM at PI3 Kgamma (PI3 Kg); 1000 to 10000 nM at PI3Kalpha (PI3Ka).
Take `CCNC(=O)Nc1ccc(-c2nc3c(c(N4CCOC[C@@H]4C)n2)CN(C(=O)C2CC2)C3)cc1` [Example 23, (S)-1-(4-(6-(cyclopropanecarbonyl)-4-(3-methylmorpholino)-6,7-dihydro-5H-pyrrolo[3,4-d]pyrimidin-2-yl)phenyl)-3-ethylurea]: the IC50 on mTOR (setting [2]) was below 100 nM; at mTOR (setting [3]), below 100 nM; in assay [1], 115 nM; at PI3 Kgamma (PI3 Kg) it was above 10000 nM; at PI3Kalpha (PI3Ka), 1000 to 10000 nM.
With `CCNC(=O)Nc1ccc(-c2nc3c(c(N4CCOC[C@@H]4C)n2)CCN(C(=O)c2ccc(F)cc2)C3)cc1` [Example 24, (S)-1-ethyl-3-(4-(7-(4-fluorobenzoyl)-4-(3-methylmorpholino)-5,6,7,8-tetrahydropyrido[3,4-d]pyrimidin-2-yl)phenyl)urea], the IC50 is 100 to 1000 nM at mTOR (setting [2]), 100 to 1000 nM on mTOR (setting [3]), 126 nM in assay [1] and above 10000 nM on PI3 Kgamma (PI3 Kg). At PI3Kalpha (PI3Ka), the “Inhibition values (IC50) PI3Ka” value is reported as “D (D >10 μM)”.
As to `C[C@H]1COCCN1c1nc(-c2ccc(NC(=O)NC3CC3)cc2)nc2c1CN(CC(C)(C)C)C2` [Example 25, (S)-1-cyclopropyl-3-(4-(4-(3-methylmorpholino)-6-neopentyl-6,7-dihydro-5H-pyrrolo[3,4-d]pyrimidin-2-yl)phenyl)urea], the IC50 on mTOR (setting [2]) is 100 to 1000 nM; on mTOR (setting [3]), 100 to 1000 nM; in assay [1], 98 nM; on PI3 Kgamma (PI3 Kg), above 10000 nM. In addition, the “Inhibition values (IC50) PI3Ka” value on PI3Kalpha (PI3Ka) is listed as “D (D >10 μM)”.
Turning to `CCNC(=O)Nc1ccc(-c2nc3c(c(N4CCOC[C@@H]4C)n2)CCN(CC)C3)cc1` [Example 27, (S)-1-ethyl-3-(4-(7-ethyl-4-(3-methylmorpholino)-5,6,7,8-tetrahydropyrido[3,4-d]pyrimidin-2-yl)phenyl)urea], the IC50 is below 100 nM on mTOR (setting [2]); below 100 nM at mTOR (setting [3]); 24 nM in assay [1]; 1000 to 10000 nM at PI3 Kgamma (PI3 Kg); 1000 to 10000 nM at PI3Kalpha (PI3Ka).
In the case of `CCNC(=O)Nc1ccc(-c2nc3c(c(N4CCOC[C@@H]4C)n2)CN(CC2CC2)C3)cc1` [Example 28, (S)-1-(4-(6-(cyclopropylmethyl)-4-(3-methylmorpholino)-6,7-dihydro-5H-pyrrolo[3,4-d]pyrimidin-2-yl)phenyl)-3-ethylurea], the IC50 at mTOR (setting [2]) was below 100 nM; on mTOR (setting [3]) it was below 100 nM; in assay [1] it was 72 nM; at PI3 Kgamma (PI3 Kg), above 10000 nM. Besides, the “Inhibition values (IC50) PI3Ka” value on PI3Kalpha (PI3Ka) is listed as “D (D >10 μM)”.
Regarding `CCNC(=O)Nc1ccc(-c2nc3c(c(N4CCOC[C@@H]4C)n2)CN(Cc2ccc(F)cc2)C3)cc1` [Example 29, (S)-1-ethyl-3-(4-(6-(4-fluorobenzyl)-4-(3-methylmorpholino)-6,7-dihydro-5H-pyrrolo[3,4-d]pyrimidin-2-yl)phenyl)urea], the IC50 on mTOR (setting [2]) was 100 to 1000 nM; on mTOR (setting [3]), 100 to 1000 nM; in assay [1], 130 nM; at PI3 Kgamma (PI3 Kg), above 10000 nM. Further, at PI3Kalpha (PI3Ka), the “Inhibition values (IC50) PI3Ka” value is “D (D >10 μM)”.
As to `CCOC(=O)N1Cc2nc(-c3ccc(NC(=O)NC4CC4)cc3)nc(N3CCOC[C@@H]3C)c2C1` [Example 34, (S)-ethyl 2-(4-(3-cyclopropylureido)phenyl)-4-(3-methylmorpholino)-5H-pyrrolo[3,4-d]pyrimidine-6(7H)-carboxylate], the IC50 on mTOR (setting [2]) was below 100 nM; at mTOR (setting [3]) it was below 100 nM; in assay [1], 49 nM; on PI3 Kgamma (PI3 Kg), above 10000 nM. The “Inhibition values (IC50) PI3Ka” value on PI3Kalpha (PI3Ka) is listed as “D (D >10 μM)”.
Regarding `CCNC(=O)Nc1ccc(-c2nc3c(c(N4CCOC[C@@H]4C)n2)CCN(C)C3)cc1` [Example 35, (S)-1-ethyl-3-(4-(7-methyl-4-(3-methylmorpholino)-5,6,7,8-tetrahydropyrido[3,4-d]pyrimidin-2-yl)phenyl)urea], the IC50 on mTOR (setting [2]) is below 100 nM; on mTOR (setting [3]), below 100 nM; in assay [1], 37 nM; at PI3 Kgamma (PI3 Kg), above 10000 nM. For the same compound, at PI3Kalpha (PI3Ka), the “Inhibition values (IC50) PI3Ka” value is reported as “D (D >10 μM)”.
For the compound `CCNC(=O)Nc1ccc(-c2nc3c(c(N4CCOC[C@@H]4C)n2)CCN(CC2CC2)C3)cc1` [Example 37, (S)-1-(4-(7-(cyclopropylmethyl)-4-(3-methylmorpholino)-5,6,7,8-tetrahydropyrido[3,4-d]pyrimidin-2-yl)phenyl)-3-ethylurea], the IC50 on mTOR (setting [2]) was below 100 nM; on mTOR (setting [3]), below 100 nM; in assay [1] it was 86 nM; on PI3 Kgamma (PI3 Kg) it was above 10000 nM. Also, on PI3Kalpha (PI3Ka), the “Inhibition values (IC50) PI3Ka” value was “D (D >10 μM)”.
Turning to `CCCNC(=O)Nc1ccc(-c2nc3c(c(N4CCOC[C@@H]4C)n2)CN(CC2CC2)C3)cc1` [Example 49, (S)-1-(4-(6-(cyclopropylmethyl)-4-(3-methylmorpholino)-6,7-dihydro-5H-pyrrolo[3,4-d]pyrimidin-2-yl)phenyl)-3-propylurea], the IC50 at mTOR (setting [2]) is 100 to 1000 nM; at mTOR (setting [3]), 100 to 1000 nM; in assay [1] it was 306 nM.
`CC(C)NC(=O)Nc1ccc(-c2nc3c(c(N4CCOC[C@@H]4C)n2)CN(CC2CC2)C3)cc1` [Example 50, (S)-1-(4-(6-(cyclopropylmethyl)-4-(3-methylmorpholino)-6,7-dihydro-5H-pyrrolo[3,4-d]pyrimidin-2-yl)phenyl)-3-isopropylurea]: the results for the IC50 (on mTOR (setting [2]); on mTOR (setting [3]); in assay [1]) were 100 to 1000 nM, 100 to 1000 nM and 423 nM, respectively.
On to `C[C@H]1COCCN1c1nc(-c2ccc(NC(=O)NC3CCC3)cc2)nc2c1CN(C)C2` [Example 55, (S)-1-cyclobutyl-3-(4-(6-methyl-4-(3-methylmorpholino)-6,7-dihydro-5H-pyrrolo[3,4-d]pyrimidin-2-yl)phenyl)urea], for which the IC50 at mTOR (setting [2]) is 100 to 1000 nM; on mTOR (setting [3]) it was 100 to 1000 nM; in assay [1], 435 nM.
`COC(=O)N1Cc2nc(-c3ccc(NC(=O)NCCF)cc3F)nc(N3CCOCC3)c2C1` [Example 169, Methyl 2-(2-fluoro-4-(3-(2-fluoroethyl)ureido)phenyl)-4-morpholino-5H-pyrrolo[3,4-d]pyrimidine-6(7H)-carboxylate]: the IC50 on mTOR (Further Kinobeads Data, read-out: mTor) was below 100 nM; in assay [1] it was 143 nM.
